Literature values in publication PMC10949855 (Journal of veterinary pharmacology and therapeutics, 2022).

Conditions: oral, dogs; ref KuKanich & KuKanich 2015; Matsui et al 1995; cited from earlier work

| SMILES | TMAX |
| --- | --- |
| O=C(N[C@H](CO)[C@H](O)c1ccc([N+](=O)[O-])cc1)C(Cl)Cl [chloramphenicol] | 1.3 h |
| CN/C(=N/CCSCc1nc[nH]c1C)NC#N [cimetidine] | 1.8 h |
| CN(C)CCCC1(c2ccc(F)cc2)OCc2cc(C#N)ccc21 (stereo not shown) [citalopram] | 1 h |
| CC(=O)N1CCN(c2ccc(OCC3COC(Cn4ccnc4)(c4ccc(Cl)cc4Cl)O3)cc2)CC1 (stereo not shown) [ketoconazole] | 2 h |
